Reference: ChEMBL document CHEMBL1133974, “Synthesis and in vitro evaluation of a series of diketopiperazine inhibitors of plasminogen activator inhibitor-1” (Bioorg Med Chem Lett, 2001)

biological target: T1, Plasminogen activator inhibitor 1 (Homo sapiens, UniProt P05121); assay: Inhibitory activity of compound against Plasminogen activator inhibitor-1
T1 sequence (P05121 whole entry): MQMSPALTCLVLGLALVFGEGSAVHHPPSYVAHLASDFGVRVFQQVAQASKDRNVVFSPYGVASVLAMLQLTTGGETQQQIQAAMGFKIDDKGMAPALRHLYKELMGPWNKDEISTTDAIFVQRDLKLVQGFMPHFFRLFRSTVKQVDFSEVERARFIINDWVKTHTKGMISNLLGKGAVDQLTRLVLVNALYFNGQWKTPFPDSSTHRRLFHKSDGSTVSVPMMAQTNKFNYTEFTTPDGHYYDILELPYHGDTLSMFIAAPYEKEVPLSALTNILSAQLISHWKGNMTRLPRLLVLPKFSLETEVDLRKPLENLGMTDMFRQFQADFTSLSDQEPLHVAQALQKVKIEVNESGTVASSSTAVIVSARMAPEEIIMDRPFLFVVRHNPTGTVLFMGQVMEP

Compared with `CN(C)CCSc1ccc(/C=c2\[nH]c(=O)/c(=C/c3ccc(NC(=O)c4cccs4)cc3)[nH]c2=O)s1`, `CN(C)CCSc1ccc(/C=c2\[nH]c(=O)/c(=C/c3ccc(NC(=O)c4ccccc4)cc3)[nH]c2=O)s1` is 2-fold higher in IC50: 3.1 µM for the first, 6.1 µM for the second. The first is the more potent here.

`CN(C)CCSc1ccc(/C=c2\[nH]c(=O)/c(=C/c3ccc(Br)cc3)[nH]c2=O)s1` and `Cc1ccc(/C=c2\[nH]c(=O)/c(=C/c3ccc(SCCN(C)C)s3)[nH]c2=O)cc1` are within 1.5-fold of each other in IC50: 13.1 µM for the first, 12.4 µM for the second.

`O=C(O)c1ccc(/C=c2\[nH]c(=O)/c(=C/c3ccccc3)[nH]c2=O)cc1` and `O=C(O)COc1ccc(/C=c2\[nH]c(=O)/c(=C/c3ccccc3)[nH]c2=O)cc1` cannot be ordered by IC50: > 25 µM for the first, > 25 µM for the second.

`CN(C)CC[S+]([O-])c1ccc(/C=c2\[nH]c(=O)/c(=C/c3ccccc3)[nH]c2=O)s1` (stereo unspecified) and `CN(C)CCOc1ccc(/C=c2\[nH]c(=O)/c(=C/c3ccccc3)[nH]c2=O)s1` cannot be ordered by IC50: > 25 µM for the first, > 25 µM for the second.

`O=C(O)CCCCCCC(=O)Nc1ccc(/C=c2\[nH]c(=O)/c(=C/c3ccc(NC(=O)c4cccs4)cc3)[nH]c2=O)cc1` and `O=C(O)CCCCCCCCC(=O)Nc1ccc(/C=c2\[nH]c(=O)/c(=C/c3ccc(NC(=O)c4cccs4)cc3)[nH]c2=O)cc1` are within 1.5-fold of each other in IC50: 0.52 µM for the first, 0.39 µM for the second.

Compared with `O=C(O)CCCCOc1ccc(/C=c2\[nH]c(=O)/c(=C/c3ccc(NC(=O)c4cccs4)cc3)[nH]c2=O)cc1`, `O=C(O)CCCCCCCOc1ccc(/C=c2\[nH]c(=O)/c(=C/c3ccc(NC(=O)c4cccs4)cc3)[nH]c2=O)cc1` is 8.8-fold lower in IC50: 1.75 µM for the first, 0.2 µM for the second. The second is the more potent here.

First: CN(C)CCSc1ccc(/C=c2\[nH]c(=O)/c(=C/c3ccc(N(C)C)cc3)[nH]c2=O)s1
Second: COc1ccc(/C=c2\[nH]c(=O)/c(=C/c3ccc(SCCN(C)C)s3)[nH]c2=O)cc1
The IC50 of the first is higher: > 25 µM for the first, 10.9 µM for the second. The second is the more potent here.

Compared with `CN(C)CCSc1ccc(/C=c2\[nH]c(=O)/c(=C/c3ccc(C#N)cc3)[nH]c2=O)s1`, `COC(=O)c1ccc(/C=c2\[nH]c(=O)/c(=C/c3ccc(SCCN(C)C)s3)[nH]c2=O)cc1` is lower in IC50: > 25 µM for the first, 17.7 µM for the second.

Going from `COC(=O)CCCCCCC(=O)Nc1ccc(/C=c2\[nH]c(=O)/c(=C/c3ccc(NC(=O)c4cccs4)cc3)[nH]c2=O)cc1` to `COC(=O)CCCCCCCOc1ccc(/C=c2\[nH]c(=O)/c(=C/c3ccc(NC(=O)c4cccs4)cc3)[nH]c2=O)cc1`, the IC50 falls from 4.77 µM to 1.93 µM (2.5-fold). The second is the more potent here.

First: CCN(CC)CCSc1ccc(/C=c2\[nH]c(=O)/c(=C/c3ccccc3)[nH]c2=O)s1
Second: CN(C)CCSc1ccc(/C=c2\[nH]c(=O)/c(=C/c3ccccc3)[nH]c2=O)s1
The IC50 of the first is higher: > 25 µM for the first, 3.5 µM for the second.

`CN(C)CCSc1ccc(/C=c2\[nH]c(=O)/c(=C/c3ccccc3Br)[nH]c2=O)s1` and `CN(C)CCSc1ccc(/C=c2\[nH]c(=O)/c(=C/c3cccc(Cl)c3)[nH]c2=O)s1` cannot be ordered by IC50: > 25 µM for the first, > 25 µM for the second.

`O=C(O)CCCCOc1ccc(/C=c2\[nH]c(=O)/c(=C/c3ccccc3)[nH]c2=O)cc1` and `O=C(O)CCCOc1ccc(/C=c2\[nH]c(=O)/c(=C/c3ccccc3)[nH]c2=O)cc1` are within 1.5-fold of each other in IC50: 15 µM for the first, 20 µM for the second.

biological target: T1, Plasminogen activator inhibitor 1; assay: Tissue plasminogen activator generation in plasmin was evaluated by measuring the ability to inhibit Plasminogen activator inhibitor-1 through fibrin plate assay

`O=C(O)CCCCCCCOc1ccc(/C=c2\[nH]c(=O)/c(=C/c3ccc(NC(=O)c4cccs4)cc3)[nH]c2=O)cc1` was tested, and the IC50 was 0.26 µM.

biological target: T1, Plasminogen activator inhibitor 1; assay: Tissue plasminogen activator generation in plasmin was evaluated by measuring the ability to inhibit Plasminogen activator inhibitor-1 through complex assay

`O=C(O)CCCCCCCOc1ccc(/C=c2\[nH]c(=O)/c(=C/c3ccc(NC(=O)c4cccs4)cc3)[nH]c2=O)cc1` gave an IC50 of 0.51 µM.
